Key:
[1] = system: Lgr5+ stem/progenitor cells derived from the mouse inner ear; assay: Culture of inner ear (cochlear) Lgr5-GFP epithelial cells in Matrigel; assay type: cell-based; settings: organ of Corti single cells, Matrigel, 8 days
Excerpt: The same culture condition (EGF, Noggin, R-spondin1, or “ENR”) as used in Lgr5+ small intestinal stem cell cultures was first established.
Isolated organ of Corti from Lgr5-GFP mice were dissociated into single cells using accutase and cultured in multiple combinations of soluble factors and small molecules in Matrigel for 8 days. The resulting cultures were further dissociated into single cells and analyzed using FACS. […] In addition, the combination of EGF, bFGF and IGF-1 (designated as EFI) improved cell proliferation and GFP expression compared with the ENR condition (FIG. 14A-14C).
To further investigate the effects of individual growth factors when combined with CHIR and VPA, growth factors including Mitogenic growth factors (EGF, bFGF and IGF-1) as well as the Wnt agonist R-spondin 1 in combination with CHIR and VPA were tested.

Lgr5+ stem cells [2] = assay: Quantitative real-time PCR of mature intestinal epithelial cell markers and Lgr5, 6 day culture (FIG. 6D); assay type: cell-based, mouse
Description: FIGS. 6A-6D depict maintenance of Lgr5+ stem cell self-renewal by the combination of CHIR and VPA. Confocal images of Lysozyme (FIG. 6A), Ki67 (FIG. 6B) and EdU (FIG. 6C) staining of organoids cultured under the ENR condition (Upper panels) and colonies cultured in the ENR-CV condition (Lower panels) are shown. For EdU staining, cells were cultured with the thymidine analogue EdU (red) for 1 hour. In FIGS. 6B and 6C, only crypt domains contain Ki67 positive cells or incorporate EdU in the ENR condition (Upper panels) while Ki67 or EdU is present throughout the cell aggregates in the CV condition (Lower panels). FIG. 6D depicts quantitative real-time PCR analysis of relative mRNA expression of markers for mature intestinal epithelial cells cultured for 6 days under conditions as indicated (Intestinal Alkaline phosphatase [Alpi] for enterocytes, Mucin 2 [Muc2] for goblet cells, Chromogranin A [ChgA] for enteroendocrine cells, Lysozyme [Lyz] for Paneth cells, and Lgr5 for intestinal stem cells). ENR-CV(D40) indicates cells that were cultured in the CV condition for 40 days. Scale bars: 50 μm. In FIG. 6D, the series are, from left to right, Alpi, Muc2, ChgA, Lyz, and Lgr5.
As previously reported, cells in the ENR condition grew into organoids with crypt-villus structure containing all intestinal epithelial cell types, confirmed by staining of alkaline phosphatase (Alp) positive enterocytes, Mucin 2 (Muc2) positive goblet cells, Chromogranin A (ChgA) positive enteroendocrine cells, Lysozyme (Lyz) positive Paneth cells and Lgr5-GFP^+ stem cells. Lgr5^+ stem cells only reside at the tips of crypt (FIGS. 6A and 7A). […] In the CV condition, however, GFP^+ stem cells were present throughout the entire colony with minimal presence of Paneth cells (FIG. 6A) and without the presence of other cells types. Compared to ENR culture, Ki67 or EdU positive proliferating cells in the CV condition existed throughout the cell colony (FIGS. 6B and 6C). […] This expression pattern was maintained over multiple passages, and the Lgr5 expression level was maintained (FIG. 6D). […]

Lgr5+ stem cells [3] = assay: Controlled differentiation of Lgr5+ stem cells after CV culture (RT-PCR and staining of differentiation markers); assay type: cell-based, mouse; settings: colonies from 6 days CV, then 4 days with ENR plus agents (FIG. 7B)

Compound | GFP expression (in words) [1] | cell proliferation (in words) [1] | secretory differentiation (Lgr5+ stem cells [2]) | ChgA expression (Lgr5+ stem cells [3]) | Lysozyme expression (Lgr5+ stem cells [3]) | Muc2 expression (Lgr5+ stem cells [3]) | Paneth cell differentiation (Lgr5+ stem cells [2]) | enterocyte differentiation (Lgr5+ stem cells [2])
CCCC(CCC)C(=O)O [Valproic Acid] | not CHIR or VPA alone | not CHIR or VPA alone | decreased | lower level of expression | lower level of expression | lower level of expression | – | –
Cc1cnc(-c2cnc(NCCNc3ccc(C#N)cn3)nc2-c2ccc(Cl)cc2Cl)[nH]1 [CHIR99021, 6-[[2-[[4-(2,4-Dichlorophenyl)-5-(5-methyl-1H-imidazol-2-yl)-2-pyrimidinyl]amino]ethyl]amino]-3-pyridinecarbonitrile] | not CHIR or VPA alone | not CHIR or VPA alone | – | did not significantly influence | – | – | increased | reduces

Source: patent US10041047B2, “Compositions and methods for epithelial stem cell expansion and culture” (The Brigham and Women's Hospital, Inc., priority 2013, dated 2018)
